In ChEMBL document CHEMBL5104171 (Bioorg Med Chem Lett, 2022):
Converted amounts (≈) assume the structure as drawn.

How the values were obtained:
[1] = Inhibition of RANKL-induced human osteoclast precursor cells differentiation in presence of human M-CSF and measured by tartrate-resistant acid phosphatase activity assay; format: functional, cell-based
[2] = biological target: Hepatocyte growth factor receptor (Homo sapiens, UniProt P08581); assay: Inhibition of N-terminal His-Glu-TEV-tagged MET (unknown origin) (1050 to 1360 residues) measured by spectrophotometric analysis
animal or person [3] = conditions: Mus musculus, DBA/1, 144 h, read-out: INH
[4] = Plasma concentration in DBA/1 mouse at 15 mg/kg, po administered once daily for 6 days and measured at 18 hrs; format: ADME, organism-based; conditions: time 6 day
[5] = Plasma concentration in DBA/1 mouse at 15 mg/kg, po administered once daily for 6 days and measured at 24 hrs; format: ADME, organism-based; conditions: time 6 day
[6] = Metabolic stability in human liver microsomes assessed as compound remaining at 60 mins; format: ADME, Microsome; conditions: read-out: Stability
animal or person [7] = conditions: Mus musculus, DBA/1, 144 h, read-out: INH; remark: listed apart in the source
animal or person [8] = conditions: Mus musculus, DBA/1, 144 h, read-out: INH; remark: listed apart in the source
[9] = Aqueous solubility of compound at pH 7.4; format: physicochemical
[10] = Plasma concentration in DBA/1 mouse at 15 mg/kg, po administered once daily for 6 days and measured at 4 hrs; format: ADME, organism-based; conditions: time 6 day
animal or person [11] = conditions: Mus musculus, DBA/1, 144 h, read-out: INH; remark: listed apart in the source
[12] = Plasma concentration in DBA/1 mouse at 15 mg/kg, po administered once daily for 6 days and measured at 2 hrs; format: ADME, organism-based; conditions: time 6 day
animal or person [13] = conditions: Mus musculus, DBA/1, 144 h, read-out: INH; remark: listed apart in the source
[14] = Plasma protein binding in human; format: ADME, cell-free; conditions: read-out: PPB (converted)
[15] = Permeability across apical to basolateral side in human Caco-2 cells; format: ADME, cell-based; conditions: read-out: permeability
[16] = Metabolic stability in mouse liver microsomes assessed as compound remaining at 60 mins; format: ADME, Microsome; conditions: read-out: Stability
[17] = Plasma concentration in DBA/1 mouse at 15 mg/kg, po administered once daily for 6 days and measured at 12 hrs; format: ADME, organism-based; conditions: time 6 day
[18] = Plasma concentration in DBA/1 mouse at 15 mg/kg, po administered once daily for 6 days and measured at 8 hrs; format: ADME, organism-based; conditions: time 6 day
[19] = Plasma protein binding in mouse; format: ADME, cell-free; conditions: read-out: PPB (converted)
animal or person [20] = conditions: Mus musculus, DBA/1, 144 h, read-out: INH; remark: listed apart in the source
[21] = Plasma concentration in DBA/1 mouse at 15 mg/kg, po administered once daily for 6 days and measured at 6 hrs; format: ADME, organism-based; conditions: time 6 day
animal or person [22] = conditions: Mus musculus, DBA/1, 144 h, read-out: INH; remark: listed apart in the source

Hepatocyte growth factor receptor, sequence (P08581 whole entry, the tested form may be a part): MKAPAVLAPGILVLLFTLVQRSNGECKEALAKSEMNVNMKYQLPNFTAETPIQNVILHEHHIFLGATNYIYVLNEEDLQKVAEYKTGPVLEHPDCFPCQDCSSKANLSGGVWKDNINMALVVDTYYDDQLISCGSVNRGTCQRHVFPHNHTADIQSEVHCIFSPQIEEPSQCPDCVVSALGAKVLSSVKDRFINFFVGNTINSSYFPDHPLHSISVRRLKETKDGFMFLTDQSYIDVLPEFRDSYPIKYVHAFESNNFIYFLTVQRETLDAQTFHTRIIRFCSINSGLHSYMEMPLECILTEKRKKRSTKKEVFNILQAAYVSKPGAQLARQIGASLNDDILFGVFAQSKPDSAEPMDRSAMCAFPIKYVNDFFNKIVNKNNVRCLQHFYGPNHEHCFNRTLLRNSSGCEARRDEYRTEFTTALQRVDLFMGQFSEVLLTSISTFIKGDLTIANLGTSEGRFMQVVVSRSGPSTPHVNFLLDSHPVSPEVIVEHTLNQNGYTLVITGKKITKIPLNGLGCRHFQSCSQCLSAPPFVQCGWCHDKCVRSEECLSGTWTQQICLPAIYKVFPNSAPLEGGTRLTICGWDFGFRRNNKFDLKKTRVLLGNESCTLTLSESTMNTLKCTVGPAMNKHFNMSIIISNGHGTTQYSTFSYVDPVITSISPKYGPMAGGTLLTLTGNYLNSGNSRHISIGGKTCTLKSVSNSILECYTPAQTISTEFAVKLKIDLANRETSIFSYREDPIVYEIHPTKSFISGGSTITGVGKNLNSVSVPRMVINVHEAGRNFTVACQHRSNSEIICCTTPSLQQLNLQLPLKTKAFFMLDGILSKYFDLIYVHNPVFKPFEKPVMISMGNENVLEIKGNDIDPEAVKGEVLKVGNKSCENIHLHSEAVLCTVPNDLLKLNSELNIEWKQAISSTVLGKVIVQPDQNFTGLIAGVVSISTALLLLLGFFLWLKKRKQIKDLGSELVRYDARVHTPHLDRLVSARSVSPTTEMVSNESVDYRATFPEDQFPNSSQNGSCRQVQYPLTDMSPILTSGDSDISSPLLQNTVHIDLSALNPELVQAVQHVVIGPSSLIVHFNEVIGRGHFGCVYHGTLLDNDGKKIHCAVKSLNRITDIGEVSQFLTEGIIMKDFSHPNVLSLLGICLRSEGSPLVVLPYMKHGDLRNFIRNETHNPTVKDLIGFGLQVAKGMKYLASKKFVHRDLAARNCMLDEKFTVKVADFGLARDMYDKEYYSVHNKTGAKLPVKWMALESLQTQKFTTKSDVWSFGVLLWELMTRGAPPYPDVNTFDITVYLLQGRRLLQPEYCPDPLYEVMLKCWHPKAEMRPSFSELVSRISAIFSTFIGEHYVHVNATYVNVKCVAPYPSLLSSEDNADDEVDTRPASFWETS

CN(C)CC(=O)N1CCC(c2ccc(NC(=O)c3nc(C#N)c[nH]3)c(C3=CCCCC3)c2)CC1
IC50 [1]: 1.7 nM

FC(F)(F)c1ccc(CNc2ccc(Cc3c[nH]c4ncc(Cl)cc34)cn2)cn1 [PEXIDARTINIB]
IC50 [2]: > 3300 nM

Cc1nc(NC(=O)NC(=O)C(C)(C)C)ccc1Oc1ccnc(-c2cnn(C)c2)c1
inhibition in vivo at 15 mg/kg (animal or person [3]): -4% | concentration at 144 h [4]: 125 ng/mL | concentration at 144 h [5]: 86 ng/mL | remaining at 1 h [6]: 100% | inhibition in vivo at 15 mg/kg (animal or person [7]): 89% | inhibition in vivo at 15 mg/kg (animal or person [8]): 14% | solubility [9]: 95.6 µM (≈ 39 µg/mL) | concentration at 144 h [10]: 1860 ng/mL | inhibition in vivo at 15 mg/kg (animal or person [11]): 94% | concentration at 144 h [12]: 2250 ng/mL | inhibition in vivo at 15 mg/kg (animal or person [13]): 18% | fraction unbound [14]: 0.023 | Papp A→B [15]: 13.9 ×10⁻⁶ cm/s | remaining at 1 h [16]: 91% | concentration at 144 h [17]: 163 ng/mL | concentration at 144 h [18]: 1350 ng/mL | fraction unbound [19]: 0.041 | inhibition in vivo at 15 mg/kg (animal or person [20]): 75% | concentration at 144 h [21]: 1430 ng/mL | inhibition in vivo at 15 mg/kg (animal or person [22]): 88%
